In ChEMBL document CHEMBL2062432, “Design and synthesis of novel DFG-out RAF/vascular endothelial growth factor receptor 2 (VEGFR2) inhibitors: 2. Synthesis and characterization of a novel imide-type prodrug for improving oral absorption” (Bioorg Med Chem, 2012):
Blank lines part the entries; values can stand above or below the compound they belong to.

Assays:
[1] = Thermodynamic solubility of the compound in JP2 solution at pH 6.8 in presence of 20 mM bile acid; assay type: physicochemical; details: JP2 solution with 20 mM bile acid, read-out: Therm_solubility
[2] = Metabolic stability in human liver microsomes assessed as compound remaining at 30 uM after 60 mins by HPLC analysis; assay type: ADME, Microsome; details: read-out: Stability
A-375 [3] = assay: Antitumor activity against human A375 cells xenografted in athymic nude F344/N jcl-rnu/rnu […] assessed as tumor regression at 129 mg/kg, po administered BID for 2 weeks measured on day 14 relative to control; assay type: functional
Mus musculus [4] = assay: AUC (0 to 24 hrs) in mouse assessed as 2-chloro-3-(1-cyanocyclopropyl)-N-[5-({2-[(cyclopropylcarbonyl) amino][1,3]thiazolo[5,4-b]pyridin-5-yl}oxy)-2-fluorophenyl] benzamide level at 32.3 mg/kg, po administered as single dose; assay type: ADME, organism-based, Plasma; parameters: time < 24 hr, dose 32.3 mg/kg, route oral; details: in vivo
Mus musculus [5] = assay: AUC (0 to 24 hrs) in mouse assessed as tert-butyl 5-(2-(cyclopropanecarboxamido)thiazolo[5,4-b]pyridin-5-yloxy)-2-fluorophenylcarbamate level at 32.3 mg/kg, po administered as single dose; assay type: ADME, organism-based, Plasma; parameters: time < 24 hr, dose 32.3 mg/kg, route oral; details: in vivo
Mus musculus [6] = species on record: Mus musculus; assay: (§1) Ratio of AUC (0 to 24 hrs) in mouse assessed as 2-chloro-3-(1-cyanocyclopropyl)-N-[5-({2-[(cyclopropylcarbonyl) amino][1,3]thiazolo[5,4-b]pyridin-5-yl}oxy)-2-fluorophenyl] benzamide level to AUC (0 to 24hrs) in mouse assessed as tert-butyl 5-(2-(cyclopropanecarboxamido)thiazolo[5,4-b]pyridin-5-yloxy)-2-fluorophenylcarbamate level; assay type: ADME, organism-based; details: in vivo
Rattus norvegicus [7] = assay: AUC (0 to 24 hrs) in nude rat assessed as tert-butyl 2-chloro-3-(1-cyanocyclopropyl)benzoyl(5-(2-(cyclopropanecarboxamido)thiazolo[5,4-b]pyridin-5-yloxy)-2-fluorophenyl)carbamate level at 12.9 mg/kg, po administered as single dose; assay type: ADME, organism-based, Plasma; parameters: time < 24 hr, dose 12.9 mg/kg, route oral; details: in vivo
Rattus norvegicus [8] = assay: AUC (0 to 24 hrs) in nude rat assessed as 2-chloro-3-(1-cyanocyclopropyl)-N-[5-({2-[(cyclopropylcarbonyl) amino][1,3]thiazolo[5,4-b]pyridin-5-yl}oxy)-2-fluorophenyl] benzamide level at 12.9 mg/kg, po administered as single dose; assay type: ADME, organism-based, Plasma; parameters: time < 24 hr, dose 12.9 mg/kg, route oral; details: in vivo
Rattus norvegicus [9] = assay: AUC (0 to 24 hrs) in nude rat assessed as tert-butyl 5-(2-(cyclopropanecarboxamido)thiazolo[5,4-b]pyridin-5-yloxy)-2-fluorophenylcarbamate level at 12.9 mg/kg, po administered as single dose; assay type: ADME, organism-based, Plasma; parameters: time < 24 hr, dose 12.9 mg/kg, route oral; details: in vivo
Rattus norvegicus [10] = assay: (§2) Ratio of AUC (0 to 24 hrs) assessed as 2-chloro-3-(1-cyanocyclopropyl)-N-[5-({2-[(cyclopropylcarbonyl) amino][1,3]thiazolo[5,4-b]pyridin-5-yl}oxy)-2-fluorophenyl] benzamide level to AUC (0 to 24hrs) assessed as tert-butyl 5-(2-(cyclopropanecarboxamido)thiazolo[5,4-b]pyridin-5-yloxy)-2-fluorophenylcarbamate level in nude rat at 12.9 mg/kg, po; assay type: ADME, organism-based; parameters: dose 12.9 mg/kg, route oral; details: in vivo
Rattus norvegicus [11] = assay: AUC (0 to 24 hrs) in nude rat assessed as tert-butyl 2-chloro-3-(1-cyanocyclopropyl)benzoyl(5-(2-(cyclopropanecarboxamido)thiazolo[5,4-b]pyridin-5-yloxy)-2-fluorophenyl)carbamate level at 64.6 mg/kg, po administered as single dose; assay type: ADME, organism-based, Plasma; parameters: time < 24 hr, dose 64.6 mg/kg, route oral; details: in vivo
Rattus norvegicus [12] = assay: AUC (0 to 24 hrs) in nude rat assessed as 2-chloro-3-(1-cyanocyclopropyl)-N-[5-({2-[(cyclopropylcarbonyl) amino][1,3]thiazolo[5,4-b]pyridin-5-yl}oxy)-2-fluorophenyl] benzamide level at 64.6 mg/kg, po administered as single dose; assay type: ADME, organism-based, Plasma; parameters: time < 24 hr, dose 64.6 mg/kg, route oral; details: in vivo
Rattus norvegicus [13] = assay: AUC (0 to 24 hrs) in nude rat assessed as tert-butyl 5-(2-(cyclopropanecarboxamido)thiazolo[5,4-b]pyridin-5-yloxy)-2-fluorophenylcarbamate level at 64.6 mg/kg, po administered as single dose; assay type: ADME, organism-based, Plasma; parameters: time < 24 hr, dose 64.6 mg/kg, route oral; details: in vivo
Rattus norvegicus [14] = assay: as §2, with “64.6” for “12.9”; assay type: ADME, organism-based; parameters: dose 64.6 mg/kg, route oral; details: in vivo
Canis familiaris [15] = assay: AUC (0 to 24 hrs) in dog assessed as tert-butyl 2-chloro-3-(1-cyanocyclopropyl)benzoyl(5-(2-(cyclopropanecarboxamido)thiazolo[5,4-b]pyridin-5-yloxy)-2-fluorophenyl)carbamate level at 32.3 mg/kg, po administered as single dose; assay type: ADME, organism-based, Canis lupus familiaris, Plasma; parameters: time < 24 hr, dose 32.3 mg/kg, route oral; details: in vivo
Canis familiaris [16] = assay: AUC (0 to 24 hrs) in dog assessed as 2-chloro-3-(1-cyanocyclopropyl)-N-[5-({2-[(cyclopropylcarbonyl) amino][1,3]thiazolo[5,4-b]pyridin-5-yl}oxy)-2-fluorophenyl] benzamide level at 32.3 mg/kg, po administered as single dose; assay type: ADME, organism-based, Canis lupus familiaris, Plasma; parameters: time < 24 hr, dose 32.3 mg/kg, route oral; details: in vivo
Canis familiaris [17] = assay: AUC (0 to 24 hrs) in dog assessed as tert-butyl 5-(2-(cyclopropanecarboxamido)thiazolo[5,4-b]pyridin-5-yloxy)-2-fluorophenylcarbamate level at 32.3 mg/kg, po administered as single dose; assay type: ADME, organism-based, Canis lupus familiaris, Plasma; parameters: time < 24 hr, dose 32.3 mg/kg, route oral; details: in vivo
Canis familiaris [18] = species on record: Canis familiaris; assay: as §1, with “dog” for “mouse”; assay type: ADME, organism-based, Canis lupus familiaris; details: in vivo
Rhesus monkey [19] = assay: AUC (0 to 24 hrs) in monkey assessed as tert-butyl 2-chloro-3-(1-cyanocyclopropyl)benzoyl(5-(2-(cyclopropanecarboxamido)thiazolo[5,4-b]pyridin-5-yloxy)-2-fluorophenyl)carbamate level at 32.3 mg/kg, po administered as single dose; assay type: ADME, organism-based, Macaca mulatta, Plasma; parameters: time < 24 hr, dose 32.3 mg/kg, route oral; details: in vivo
Rhesus monkey [20] = assay: AUC (0 to 24 hrs) in monkey assessed as 2-chloro-3-(1-cyanocyclopropyl)-N-[5-({2-[(cyclopropylcarbonyl) amino][1,3]thiazolo[5,4-b]pyridin-5-yl}oxy)-2-fluorophenyl] benzamide level at 32.3 mg/kg, po administered as single dose; assay type: ADME, organism-based, Macaca mulatta, Plasma; parameters: time < 24 hr, dose 32.3 mg/kg, route oral; details: in vivo
Rhesus monkey [21] = assay: AUC (0 to 24 hrs) in monkey assessed as tert-butyl 5-(2-(cyclopropanecarboxamido)thiazolo[5,4-b]pyridin-5-yloxy)-2-fluorophenylcarbamate level at 32.3 mg/kg, po administered as single dose; assay type: ADME, organism-based, Macaca mulatta, Plasma; parameters: time < 24 hr, dose 32.3 mg/kg, route oral; details: in vivo
Rhesus monkey [22] = assay: as §1, with “monkey” for “mouse”; assay type: ADME, organism-based, Macaca mulatta; details: in vivo
Liver [23] = assay: (§3) Ratio of prodrug conversion assessed a 2-chloro-3-(1-cyanocyclopropyl)-N-[5-({2-[(cyclopropylcarbonyl) amino][1,3]thiazolo[5,4-b]pyridin-5-yl}oxy)-2-fluorophenyl] benzamide level to drug metabolism assessed as tert-butyl 5-(2-(cyclopropanecarboxamido)thiazolo[5,4-b]pyridin-5-yloxy)-2-fluorophenylcarbamate level in mouse liver microsomes; assay type: ADME, Microsome
Liver microsomes [24] = assay: as §3, with “rat” for “mouse”; assay type: ADME, Microsome
Liver [25] = assay: Prodrug conversion in dog liver microsomes assessed as 2-chloro-3-(1-cyanocyclopropyl)-N-[5-({2-[(cyclopropylcarbonyl) amino][1,3]thiazolo[5,4-b]pyridin-5-yl}oxy)-2-fluorophenyl] benzamide level at 10 umol/L after 2 hrs; assay type: ADME, Canis lupus familiaris, Microsome; details: 10 µM
Liver [26] = assay: as §3, with “dog” for “mouse”; assay type: ADME, Canis lupus familiaris, Microsome
[27] = as §3, with “monkey” for “mouse”; assay type: ADME, Macaca mulatta, Microsome; details: rhesus monkey
Liver microsomes [28] = assay: as §3, with “human” for “mouse”; assay type: ADME, Microsome
Mus musculus [29] = assay: Inhibition of VEGFR2-mediated ERK1/2 phosphorylation in human A375 cells xenografted athymic nude F344/N Jcl-rnu/rnu […] at 129 mg/kg, po administered as single dose after 4 hrs by immunoblotting relative to vehicle-treated control; values are per cent of control; details: A-375, po
Mus musculus [30] = assay: Inhibition of VEGFR2-mediated ERK1/2 phosphorylation in human A375 cells xenografted athymic nude F344/N Jcl-rnu/rnu […] at 12.9 mg/kg, po administered as single dose after 4 hrs by immunoblotting relative to vehicle-treated control; values are per cent of control; details: A-375, po
Mus musculus [31] = assay: Inhibition of VEGFR2-mediated ERK1/2 phosphorylation in human A375 cells xenografted athymic nude F344/N Jcl-rnu/rnu […] at 32.3 mg/kg, po administered as single dose after 4 hrs by immunoblotting relative to vehicle-treated control; values are per cent of control; details: A-375, po
[32] = molecular target: Serine/threonine-protein kinase B-raf (Homo sapiens, UniProt P15056, V600E); assay: Inhibition of BRAF V600E mutant
Mus musculus [33] = assay: Inhibition of […] ERK1/2 phosphorylation in human A375 cells xenografted po dosed athymic nude F344/N […] administered as single dose after 4 hrs by immunoblotting; assay type: functional, organism-based; details: A-375
A-375 [34] = assay: Antitumor activity against human A375 cells xenografted in athymic nude F344/N jcl-rnu/rnu […] assessed as tumor regression at >32.3 mg/kg, po administered BID for 2 weeks measured on day 14 relative to control; assay type: functional, organism-based

Chain of Serine/threonine-protein kinase B-raf (P15056 2-766 V600E limits assumed): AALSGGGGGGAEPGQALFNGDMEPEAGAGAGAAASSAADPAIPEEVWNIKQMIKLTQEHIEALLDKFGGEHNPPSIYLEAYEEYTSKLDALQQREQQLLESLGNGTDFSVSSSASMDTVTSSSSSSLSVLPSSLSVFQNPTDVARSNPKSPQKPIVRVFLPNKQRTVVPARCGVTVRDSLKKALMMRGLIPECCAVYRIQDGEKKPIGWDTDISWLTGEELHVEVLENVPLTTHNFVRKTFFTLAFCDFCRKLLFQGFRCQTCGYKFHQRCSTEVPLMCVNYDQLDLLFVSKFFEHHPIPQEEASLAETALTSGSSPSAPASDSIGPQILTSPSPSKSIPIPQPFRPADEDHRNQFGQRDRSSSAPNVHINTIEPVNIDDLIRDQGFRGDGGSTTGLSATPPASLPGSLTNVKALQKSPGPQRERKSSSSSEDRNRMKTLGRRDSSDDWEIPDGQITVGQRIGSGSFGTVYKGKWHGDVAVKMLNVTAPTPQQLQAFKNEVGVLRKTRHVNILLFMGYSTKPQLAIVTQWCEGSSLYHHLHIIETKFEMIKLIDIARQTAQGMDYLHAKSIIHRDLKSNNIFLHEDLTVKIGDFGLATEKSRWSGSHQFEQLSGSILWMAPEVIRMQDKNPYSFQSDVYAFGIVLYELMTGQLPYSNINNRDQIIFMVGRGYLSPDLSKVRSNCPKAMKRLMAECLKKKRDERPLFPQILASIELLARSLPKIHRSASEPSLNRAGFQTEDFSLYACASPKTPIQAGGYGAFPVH

solubility thermodynamic [1]: 4.2 µg/mL
SMILES: CC(C)(C)OC(=O)N(C(=O)c1cccc(C2(C#N)CC2)c1Cl)c1cc(Oc2ccc3nc(NC(=O)C4CC4)sc3n2)ccc1F.CCO

remaining at 1 h, 30 µM [2]: 78.5%
SMILES: CC(=O)Nc1nc2ccc(Oc3ccc(F)c(NC(=O)c4cccc(C5(C#N)CC5)c4Cl)c3)nc2s1

solubility thermodynamic [1]: 19 µg/mL
AUC (Mus musculus [4]): 4900 ng·h/mL
AUC (Mus musculus [5]): 500 ng·h/mL
Ratio AUC (Mus musculus [6]): 9.8
AUC (Rattus norvegicus [7]): 20 ng·h/mL
AUC (Rattus norvegicus [8]): 1390 ng·h/mL
AUC (Rattus norvegicus [9]): 570 ng·h/mL
Ratio AUC (Rattus norvegicus [10]): 2.4
AUC (Rattus norvegicus [11]): 80 ng·h/mL
AUC (Rattus norvegicus [12]): 4280 ng·h/mL
AUC (Rattus norvegicus [13]): 1800 ng·h/mL
Ratio AUC (Rattus norvegicus [14]): 2.4
AUC (Canis familiaris [15]): 530 ng·h/mL
AUC (Canis familiaris [16]): 25330 ng·h/mL
AUC (Canis familiaris [17]): 630 ng·h/mL
Ratio AUC (Canis familiaris [18]): 40
AUC (Rhesus monkey [19]): 530 ng·h/mL
AUC (Rhesus monkey [20]): 9900 ng·h/mL
AUC (Rhesus monkey [21]): 30 ng·h/mL
Ratio AUC (Rhesus monkey [22]): 330
Ratio (Liver [23]): 19
Ratio (Liver microsomes [24]): 0.76
Drug metabolism (Liver [25]): 2.3%
Ratio (Liver [26]): 3.3
Ratio [27]: 3
Ratio (Liver microsomes [28]): 152
SMILES: CC(=O)O.CC(C)(C)OC(=O)N(C(=O)c1cccc(C2(C#N)CC2)c1Cl)c1cc(Oc2ccc3nc(NC(=O)C4CC4)sc3n2)ccc1F
T/C (A-375 [3]): 6.4%
level, % of control at 129 mg/kg (Mus musculus [29]): 20.1%
level, % of control at 12.9 mg/kg (Mus musculus [30]): 52.7%
level, % of control at 32.3 mg/kg (Mus musculus [31]): 34.1%

IC50 [32]: 2000 nM
SMILES: CC(C)(C)OC(=O)Nc1cc(Oc2ccc3nc(NC(=O)C4CC4)sc3n2)ccc1F

solubility thermodynamic [1]: 0.79 µg/mL
SMILES: CCOC(=O)N(C(=O)c1cccc(C2(C#N)CC2)c1Cl)c1cc(Oc2ccc3nc(NC(=O)C4CC4)sc3n2)ccc1F

solubility thermodynamic [1]: 49 µg/mL
SMILES: CC(C)(C)OC(=O)N(C(=O)c1cccc(C2(C#N)CC2)c1Cl)c1cc(Oc2ccc3nc(NC(=O)C4CC4)sc3n2)ccc1F.O

solubility thermodynamic [1]: 3.2 µg/mL
SMILES: N#CC1(c2cccc(C(=O)N(C(=O)C3CC3)c3cc(Oc4ccc5nc(NC(=O)C6CC6)sc5n4)ccc3F)c2Cl)CC1

SMILES: CC(C)(C)OC(=O)N(C(=O)c1cccc(C2(C#N)CC2)c1Cl)c1cc(Oc2ccc3nc(NC(=O)C4CC4)sc3n2)ccc1F
inhibition (Mus musculus [33]): Dose-dependent effect
Activity (A-375 [34]): Dose-dependent effect

remaining at 1 h, 30 µM [2]: 110%
solubility thermodynamic [1]: 3.6 µg/mL
SMILES: N#CC1(c2cccc(C(=O)Nc3cc(Oc4ccc5nc(NC(=O)C6CC6)sc5n4)ccc3F)c2Cl)CC1
